The source of these data is paper PMC10558864 (Heliyon, 2023).

For one series, the system named is S. aureus. The class given is cell-based, Staphylococcus aureus. The note with it: micro broth dilution, 37 °C, 24 h, MTT indicator, triplicates. (Dilution methods test growth across graded concentrations, often in twofold steps.)
The test system of the next series is S. pyogenes. The class given is cell-based, Streptococcus pyogenes. The note with it: micro broth dilution, 37 °C, 24 h, MTT indicator, triplicates.
Series [1] has as its system E. coli^R (resistant strain). The class given is cell-based, Escherichia coli. The note with it: micro broth dilution, 37 °C, 24 h, MTT indicator, triplicates.
Series [2] deals with MRSA. The class given is cell-based, methicillin-resistant Staphylococcus aureus. The note with it: micro broth dilution, 37 °C, 24 h, MTT indicator, triplicates.
The subject of a further series is S. typhi^N. The class given is cell-based, Salmonella typhi. The note with it: micro broth dilution, 37 °C, 24 h, MTT indicator, triplicates.
A further series has as its system K. pneumoniae. The format is cell-based, Klebsiella pneumoniae. The note with it: micro broth dilution, 37 °C, 24 h, MTT indicator, triplicates.
Series [3] deals with S. typhi^R. The format is cell-based, Salmonella typhi. The note with it: FIC(A) = MIC of antibiotic in the presence of peptide / MIC of antibiotic alone.
Series [4] relates to microorganisms tested (standard and resistant bacterial strains). The experiment in a line: MIC range over the strains tested and therapeutic index. The format is cell-based. The note with it: range over the strains tested, micro broth dilution.
The test system of series [5] is E. coli^N (standard strain). The class given is cell-based, Escherichia coli. The note with it: micro broth dilution, 37 °C, 24 h, MTT indicator, triplicates.
Another series concerns human erythrocytes. The experiment in a line: Hemolytic activity. The format is cell-based. The note with it: 1% human erythrocytes in PBS pH 7.40, 37 °C, 1 h, absorbance 570 nm.
Series [6] deals with MRSA. The format is cell-based, methicillin-resistant Staphylococcus aureus.
For a further series, the system named is E. coli^R. The class given is cell-based, Escherichia coli. The note with it: FIC(A) = MIC of antibiotic in the presence of peptide / MIC of antibiotic alone.
Series [7] has as its system S. typhi^R. The class given is cell-based, Salmonella typhi. The note with it: micro broth dilution, 37 °C, 24 h, MTT indicator, triplicates.
The mark [8] stands for this setting: FIC(A) = MIC of antibiotic in the presence of peptide / MIC of antibiotic alone.
Setting [9] is: checkerboard, FIC(A)+FIC(P), 37 °C, 24 h.

Where no end group is shown, it is not given here.

In the case of AILFLSLGAIKKG [BRGP-001], the “Minimum inhibitory concentration; MIC, S. aureus” value in the series with S. aureus is 117 µM. Moreover, in the series with S. pyogenes, the “Minimum inhibitory concentration; MIC, S. pyogenes” value was above 1879 µM. For the same sequence, the “Minimum inhibitory concentration; MIC, E. coli^R” value in series [1] is above 1879 µM. Further, the “Minimum inhibitory concentration; MIC, MRSA” value in the series on MRSA [2] stood at 15 µM. In addition, the “Minimum inhibitory concentration; MIC, S. typhi^N” value with S. typhi^N is above 1879 µM. Moreover, the “Minimum inhibitory concentration; MIC, K. pneumoniae” value in the series on K. pneumoniae came out at 117 µM. In the series with S. typhi^R [3], the “FIC index of Cefotaxime in combination with the peptide, S. typhi^R” value amounted to 0.50; the “FIC index of Chloramphenicol in combination with the peptide, S. typhi^R” value was found to be 0.50; the “FIC index of Erythromycin in combination with the peptide, S. typhi^R” value was determined as 0.50. This sequence came in with an MIC range in series [4] of 15 to 117 µM. Besides, in series [5], the “Minimum inhibitory concentration; MIC, E. coli^N” value was above 1879 µM. In addition, the “MHC (minimum concentration of peptide that causes hemolysis)” value in the series with human erythrocytes was determined as 1.127 mM. Besides, in the series with MRSA [6] (setting [8]), the “FIC index of Cefotaxime in combination with the peptide, MRSA” value was determined as 0.50; the “FIC index of Chloramphenicol in combination with the peptide, MRSA” value amounted to 0.063; the “FIC index of Erythromycin in combination with the peptide, MRSA” value was 0.54. In the series with MRSA [6] (setting [9]), the “FIC index of peptide in combination with Chloramphenicol, MRSA” value was found to be 2.063 and the “FIC index of peptide in combination with Erythromycin, MRSA” value was found to be 0.81. Besides, in the series on E. coli^R, the “FIC index of Chloramphenicol in combination with the peptide, E. coli^R” value came to 0.25 and the “FIC index of Erythromycin in combination with the peptide, E. coli^R” value is recorded as 0.12. Further, in the series with S. typhi^R [7], the “Minimum inhibitory concentration; MIC, S. typhi^R” value is above 1879 µM.
